Inhibition and IC50 data for 15 compounds are collected here from patent US20050009840A1 (SUGEN, INC., priority 2003, published 2005).

T1 sequence (P08581 1078-1345 limits assumed): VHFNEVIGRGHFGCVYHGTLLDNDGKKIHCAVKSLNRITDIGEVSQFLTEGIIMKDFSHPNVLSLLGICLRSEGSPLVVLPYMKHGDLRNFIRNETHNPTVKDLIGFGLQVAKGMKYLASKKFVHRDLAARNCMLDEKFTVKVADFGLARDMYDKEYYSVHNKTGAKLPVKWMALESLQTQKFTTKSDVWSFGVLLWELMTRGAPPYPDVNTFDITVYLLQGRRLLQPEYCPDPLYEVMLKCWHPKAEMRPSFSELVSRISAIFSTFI

One test concerns the target T1, Met kinase domain (GST fusion protein) (Homo sapiens, UniProt P08581).
T1 construct: Purified GST fusion protein containing the Met kinase domain
Put plainly: Met transphosphorylation assay (ELISA, poly(glu-tyr) substrate).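 Note: Cell-free ELISA with plate-bound poly(Glu:Tyr 4:1) phosphorylated by GST-fused Met kinase domain plus ATP and Mn2+, phosphotyrosine detected by anti-phosphotyrosine antibody with HRP and ABTS read-out.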 The note with it: at 20 μM; read-out: Met inhibition (printed in the Met IC50 column). In kind it is biochemical.
In the case of `Nc1ncc(Br)cc1OCc1c(F)cccc1F` [I(c)], the inhibition at 20 µM is 40%.

The test is the same for the next values; noted with them: plain numbers in column Met IC50 (μM) of Table 2; read-out: Met IC50.
`Nc1ncc(-c2ccccn2)cc1OCc1ccc(Cl)cc1` [Example I-496, 5′-(4-Chloro-benzyloxy)-[2,3′]bipyridinyl-6′-ylamine]: the IC50 stood at 14 µM.

In the case of `CCCCOc1cnc(N)c(OC(C)c2c(F)ccc(F)c2Cl)c1` (stereo not drawn) [Example I-532, 3-[1-(2-Chloro-3,6-difluoro-phenyl)-ethoxy]-5-butoxy-pyridin-2-ylamine], the IC50 amounted to 1.94 µM.

Still in this test, the particulars now being: read-out: Met IC50.
Take `CN1CCN(C(=O)c2ccc(-c3cnc(N)c(OCc4ccccc4C#N)c3)cc2)CC1` [Example I-166, 2-{2-Amino-5-[4-(4-methyl-piperazine-1-carbonyl)-phenyl]-pyridin-3-yloxymethyl}-benzonitrile]: the IC50 is 3.2 µM. For the compound `CC(Oc1nc(-c2ccc(C(=O)N3CCC[C@H]3CN3CCCC3)cc2)cnc1N)c1c(Cl)ccc(F)c1Cl` (stereo partly drawn) [II-151, (4-{5-Amino-6-[1-(2,6-dichloro-3-fluoro-phenyl)-ethoxy]-pyrazin-2-yl}-phenyl)-((S)-2-pyrrolidin-1-ylmethyl-pyrrolidin-1-yl)-methanone], the IC50 came out at 0.18 µM. In the case of `Nc1ncc(-c2ccccc2F)cc1OCc1c(Cl)cccc1Cl` [Example I-10, 3-(2 6-Dichloro-benzyloxy)-5-(2-fluoro-phenyl)-pyridin-2-ylamine], the IC50 is 6.09 µM.

Regarding `CN(C)CCS(=O)(=O)Nc1cccc(-c2cnc(N)c(OCc3c(F)ccc(F)c3Cl)n2)c1` [II-28, 2-Dimethylamino-ethanesulfonic acid {3-[5-amino-6-(2-chloro-3,6-difluoro-benzyloxy)-pyrazin-2-yl]-phenyl}-amide], the IC50 came out at 2.28 µM. Still for that read-out and setting: the same measure for `Nc1ncc(Br)cc1OCc1c(Cl)cccc1Cl` [I(a), 5-Bromo-3-(2,6-dichloro-benzyloxy)-pyridin-2-ylamine]: 5.3 µM; for `Nc1ncc(-c2cccc(NS(=O)(=O)CCN3CCCC3CO)c2)nc1OCc1c(F)ccc(F)c1Cl` (stereo not drawn): 1.38 µM; for `CC(Oc1nc(-c2ccc(NC(=O)N3CCC[C@@H]3CN3CCCC3)cc2)cnc1N)c1c(F)ccc(F)c1Cl` (stereo partly drawn) [II-183, (R)-2-Pyrrolidin-1-ylmethyl-pyrrolidin-1-carboxylic acid (4-{5-amino-6-[1-(2-chloro-3,6-difluoro-phenyl)-ethoxy]-pyrazin-2-yl}-phenyl)-amide]: 0.21 µM. In the case of `CC(Oc1nc(-c2ccc(NS(=O)(=O)CCN3CCCC3)cc2)cnc1N)c1c(Cl)ccc(F)c1Cl` (stereo not drawn) [II-144, 2-Pyrrolidin-1-ylethanesulfonic acid (4-{5-amino-6-[1-(2,6-dichloro-3-fluoro-phenyl)-ethoxy]-pyrazin-2-yl}-phenyl)-amide], the IC50 stood at 0.36 µM.

In the case of `CS(=O)(=O)Nc1ccc(-c2cnc(N)c(OCc3c(Cl)cccc3Cl)c2)cc1` [Example I-13, N-{4-[6-Amino-5-(2,6-dichloro-benzyloxy)-pyridin-3-yl]-phenyl}-methanesulfonamide], the IC50 was 0.44 µM.

Turning to `CC(Oc1nc(-c2ccc(NC(=O)N3CCN(C)CC3)cc2)cnc1N)c1c(F)ccc(F)c1Cl` (stereo not drawn) [II-185, 4-Methyl-piperazin-1-carboxylic acid (4-{5-amino-6-[1-(2-chloro-3,6-difluoro-phenyl)-ethoxy]-pyrazin-2-yl}-phenyl)-amide], the IC50 was found to be 0.1 µM.

With `Nc1ncc(-c2ccc3[nH]c(C(=O)N4CCC[C@@H]4CN4CCCC4)cc3c2)cc1OCc1c(Cl)cccc1Cl` [Example I-80, {5-[6-Amino-5-(2,6-dichloro-benzyloxy)-pyridin-3-yl]-1H-indol-2-yl}-[(2R)-2-pyrrolidin-1-ylmethyl-pyrrolidin-1-yl]-methanone], the IC50 turned out to be 0.079 µM.

For `CC(Oc1nc(-c2cccc(C(=O)N3CCN(C)CC3)n2)cnc1N)c1c(Cl)ccc(F)c1Cl` (stereo not drawn) [II-204, (6-{5-Amino-6-[1-(2,6-dichloro-3-fluoro-phenyl)-ethoxy]-pyrazin-2-yl}-pyridin-2-yl)-(4-methyl-piperazin-1-yl)-methanone], the IC50 was found to be 0.22 µM.
